For assay [1], the system named is prototrophic yeast strain (CEN.PK113-7D). The assay can be described thus: Propidium iodide fluorescence-based CLS method in yeast (incl. high-throughput screening).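 For PI intensity: untreated reference is eight DMSO and water control wells per plate.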 In kind it is cell-based, Saccharomyces cerevisiae. Put shortly:
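CEN.PK113-7D aged in SD medium at 30 °C with compounds (rapamycin 0–10 nM; sugars 0–8 mM; screen at single concentrations). At each age point cells were stained with 5 μg/mL PI for 15 min; fluorescence was normalized to OD600, background-subtracted, and survival scaled against boiled-cell control.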

The test system is the same in assay [2]. The assay can be described thus: Yeast outgrowth in YPD liquid medium (CLS of aged cells). In kind it is cell-based, Saccharomyces cerevisiae. The procedure, abridged: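 Cultures aged at 30 °C in SD medium with double-diluted rapamycin (0–10 nM) or sugars/polyols (0–8 mM). On day 14, 3 µL of culture was transferred into 200 µL YPD and outgrowth read as OD600. Survival expressed relative to day 1 outgrowth (100%).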

A further assay deals with HEK293 cells. The assay can be described thus: CLS in human cells, propidium iodide fluorescence-based method (HEK293). In kind it is cell-based. The settings on record: sixth day after seeding. As for the experimental part: (§1) Human embryonic kidney 293 (HEK293) cells (ATCC, Manassas, Virginia, United States of America), lung epithelial (A549) cells (ATCC, Manassas, Virginia, United States of America) and fibroblast (IMR90) cells (ATCC, Manassas, Virginia, United States of America) were cultured in the standard D10 medium, consisting of high-glucose DMEM (HyClone, Cytiva, Marlborough, Massachusetts, USA) supplemented with 10% Fetal Bovine Serum (FBS) (Gibco™, ThermoFisher Scientific, Waltham, Massachusetts, USA) and 1% Penicillin Streptomycin Solution (Gibco™, ThermoFisher Scientific, Waltham, Massachusetts, USA). All cells were cultured in a humidified incubator with 5% CO2 at 37° C.
The stock solution of rapamycin, hemin, 5-fluorouracil, atorvastatin, and methotrexate was prepared in DMSO, followed by serial dilution to form various concentrations used in the experiment. The final DMSO concentration was kept at 0.05% in all experiments. The stock solution of 2,5-anhydro-D-mannitol was prepared in D10 medium. The chemical library used in screening were tested at 1 μM concentrations. Controls used were the same as the solvent applied, DMSO or water.
The assay was performed by preparing the cells with PI (2 μg/mL or 5 μg/mL) in a D10 medium. […] At different age time points, reading was taken with a Synergy MX microplate reader (BioTek, Winooski, Vermont, United States) at 535 nm excitation and 617 nm emission.

The test system of a further assay is HEK293 cell line. As to the kind of experiment: CLS in human cells using crystal violet outgrowth assay. The settings on record: Day 4 culture (FIG. 18A); seven days of outgrowth. In kind it is cell-based. As for the experimental part:
as §1
80,000 cells were seeded in a 96-well culture plate with or without compound treatment. On Day 4, Day 6, and Day 8 after seeding, floating dead cells were aspirated with exhausted D10 medium. Then, attached cells were gently washed with 1×PBS to remove D10 medium residue and treated with 0.2 mL of 0.25% trypsin. Cells were gently mixed by pipetting and a 2% aliquot (4 μL) was transferred to 6-well experiment plates with fresh D10 medium. […]
In this approach, an outgrowth assay was used to determine the number of live cells in the 6-well experiment plate using crystal violet staining. […] These live cells were then stained with crystal violet dye and assessed qualitatively.

For the compound `OC[C@H]1O[C@H](CO)[C@@H](O)[C@@H]1O` [2,5-AM, 2,5-anhydro-D-mannitol], the “survival of aged cells” value is “approximately 80%” in assay [1] (4 mM and 8 mM, Day 4, without compound approx. 50%); “approximately 75%” in assay [1] (Day 7, without compound less than 20%). Also, the “Yeast CLS increase” value in assay [1] (concentration tested 300 μg/mL, Yes/No call of the screen) is recorded as “Yes”. For the same compound, the PI intensity in assay [1] (concentration tested 300 μg/mL, solvent water, age point Day 7) was 36,240.0. In addition, the “antiaging activity in outgrowth assays” value in assay [2] (Day 1, 4, 7 and 10, FIGS. 6 to 8) is on record as “verified by outgrowth assays”. Moreover, the Outgrowth in assay [2] (concentration tested 300 μg/mL, OD600 nm after 24 h in YPD, age point day 14) is given as 1.3. Also, the “more live cells compared to the untreated group” value was 34.39% with HEK293 cells (2.5 mM) and 58.7% with HEK293 cells (5 mM). Besides, the “cellular lifespan (crystal violet, qualitative)” value in the assay on HEK293 cell line was “able to increase cellular lifespan”.

The record behind these values is patent US20250161338A1, “Compounds for Anti-aging Intervention” (AGENCY FOR SCIENCE, TECHNOLOGY AND RESEARCH, priority 2022, published 2025).
